Drawing on patent publication US10450297B2, “Sulfonyl amide derivatives for the treatment of abnormal cell growth” (Pfizer, Inc., priority 2007, dated 2019), this text covers IC50 for 29 compounds.

Chain of FAK kinase (catalytic construct FAK(410-689)) (Q05397 410-689): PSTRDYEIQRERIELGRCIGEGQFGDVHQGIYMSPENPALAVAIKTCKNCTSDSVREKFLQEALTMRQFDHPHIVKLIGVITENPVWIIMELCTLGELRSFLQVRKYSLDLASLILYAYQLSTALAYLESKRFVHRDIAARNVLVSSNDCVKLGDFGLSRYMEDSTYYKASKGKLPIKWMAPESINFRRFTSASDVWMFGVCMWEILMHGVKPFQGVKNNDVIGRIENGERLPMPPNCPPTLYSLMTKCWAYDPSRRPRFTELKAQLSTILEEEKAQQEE

The experiment has as its target FAK kinase (catalytic construct FAK(410-689)) (Homo sapiens (Human), UniProt Q05397). The experiment is described as follows: FAKcd kinase ELISA (inhibition of poly-glu-tyr phosphorylation by FAK(410-689)). As to conditions: 50 μM final ATP. The class given is biochemical. In general terms: ELISA stands for enzyme-linked immunosorbent assay.
In general, IC50 refers to the concentration that gives 50% inhibition. Low values mean greater potency in that assay, high ones weaker potency in that assay. Turning to `Cc1cc(C(N)=O)ccc1Nc1ncc(C(F)(F)F)c(NCc2cc(N(C)S(C)(=O)=O)ccn2)n1` [Compound 405, 3-methyl-4-({4-[({4-[methyl(methylsulfonyl)amino]pyridin-2-yl}methyl)amino]-5-(trifluoromethyl)pyrimidin-2-yl}amino)benzamide], half-maximal inhibition (IC50) was put at 17.3 nM.
Next, `CN(c1nccnc1CNc1nc(Nc2cc(C(N)=O)ccc2F)ncc1C(F)(F)F)S(C)(=O)=O` [Compound 373, 4-fluoro-3-({4-[({3-[methyl(methylsulfonyl)amino]pyrazin-2-yl}methyl)amino]-5-(trifluoromethyl)pyrimidin-2-yl}amino)benzamide]: 7.49 nM; `CN(c1ncccc1CNc1nc(Nc2cccc(C(=O)NC3CCCOC3)c2)ncc1C(F)(F)F)S(C)(=O)=O` (centres unmarked) [Compound 119, 3-({4-[({2-[methyl(methylsulfonyl)amino]pyridin-3-yl}methyl)amlno]-5-(trifluoromethyl)pyrimidin-2-yl}amino)-N-(tetrahydro-2H-pyran-3-yl)benzamide]: 1.14 nM; `CN(c1ncccc1CNc1nc(NC2CCC2)ncc1C(F)(F)F)S(C)(=O)=O` [Compound 38, N-[3-({[2-(cyclobutylamino)-5-(trifluoromethyl)pyrimidin-4-yl]amino}methyl)pyrldin-2-yl]-N-methylmethane-sulfonamide]: 497 nM.
For `CN(c1ncccc1CNc1nc(Nc2ccc(C(=O)NC(CO)CO)cc2)ncc1C(F)(F)F)S(C)(=O)=O` [Compound 264, N-[2-hydroxy-1-(hydroxymethyl)ethyl]-4-({4-[({2-[methyl(methylsulfonyl)amino]pyridin-3-yl}methyl)amino]-5-(trifluoromethyl)pyrimidin-2-yl}amino)benzamide], the midpoint of inhibition, the IC50, lay at 4.6 nM. Against the preceding compound, the IC50 is about 110-fold lower.
Next, `CCOC(=O)[C@H]1CC[C@@H](Nc2ncc(C(F)(F)F)c(NCc3cccnc3N(C)S(C)(=O)=O)n2)CC1` [Compound 60, ethyl cis-4-({4-(({2-[methyl(methylsulfonyl)amino]pyridin-3-yl}methyl)amino]-5-(trifluoromethyl)pyrimidin-2-yl}amino)cyclohexanecarboxylate]: 188 nM.
Next, `CS(=O)(=O)Nc1ccccc1CNc1nc(Nc2ccc(C(N)=O)cc2)ncc1C(F)(F)F` [Compound 111, 4-{[4-({2-[(methylsulfonyl)amino]benzyl}amino)-5-(trifluoromethyl)pyrimidin-2-yl]amino}benzamide]: 0.6 nM.
`CCn1nccc1Nc1ncc(C(F)(F)F)c(NCc2cccnc2N(C)S(C)(=O)=O)n1` [Compound 91, N-{3-[({2-[(1-ethyl-1H-pyrazol-5-yl)amino]-5-(trifluoromethyl)pyrimidin-4-yl}amino)methyl]pyridin-2-yl}-N-methylmethane-sulfonamide] had an IC50 of 188 nM.
In the case of `CN(c1ncccc1CNc1nc(NC2CCNCC2)ncc1C(F)(F)F)S(C)(=O)=O` [Compound 44, N-methyl-N-[3-({[2-(piperidin-4-ylamino)-5-(trifluoromethyl)pyrimidin-4-yl]amino}methyl)pyridin-2-yl]methanesulfonamide], inhibition was half-maximal at 188 nM (IC50).
Next, `Cc1ccc(CNc2nc(Nc3ccc(C(=O)N(C)C)cc3)ncc2C(F)(F)F)c(NS(C)(=O)=O)c1` [Compound 226, N,N-dimethyl-4-{[4-({4-methyl-2-[(methylsulfonyl)amino]benzyl}amino)-5-(trifluoromethyl)pyrimidin-2-yl]amino}benzamide]: 2.92 nM; `CN(c1ncccc1CNc1nc(Nc2ccc(OC(F)(F)F)cc2)ncc1C(F)(F)F)S(C)(=O)=O` [Compound 284, N-methyl-N-[3-({[2-{[4-(trifluoromethoxy)phenyl]amino}-5-(trifluoromethyl)pyrimidin-4-yl]amino}rnethyl)pyridin-2-yl]methanesulfonamide]: 1.83 nM.
For `CN(c1ncccc1CNc1nc(Nc2ccc(C(=O)NCCO)cc2)ncc1C(F)(F)F)S(C)(=O)=O` [Compound 244, N-(2-hydroxyethyl)-4-({4-[({2-[methyl(methylsulfonyl)amino]pyridin-3-yl}methyl)amino]-5-(trifluoromethyl)pyrimidin-2-yl}amino)benzamide] the value was 1.11 nM.
The compound `CN(c1nccnc1CNc1nc(Nc2ccccc2)ncc1C(F)(F)F)S(C)(=O)=O` [Compound 75, N-[3-({[2-anilino-5-(trifluoromethyl)pyrimidin-4-yl]amino}methyl)pyrazin-2-yl]-N-methylmethane-sulfonamide] gave an IC50 of 0.6 nM.
For `CC(=O)Nc1cccc(Nc2ncc(C(F)(F)F)c(NCc3cccnc3N(C)S(C)(=O)=O)n2)c1` [Compound 366, N-[3-({4-[({2-[methyl(methylsulfonyl)amino]pyridin-3-yl}methyl)amino]-5-(trifluoromethyl)pyrimidin-2-yl}amino)phenyl]acetamide] the value was under 0.595 nM; for `CN(C(=O)c1cccc(Nc2ncc(C(F)(F)F)c(NCc3cccnc3N(C)S(C)(=O)=O)n2)c1)C1CCCC1` [Compound 131, N-cyclopentyl-N-methyl-3-({4-[({2-[methyl(methylsulfonyl)amino]pyridin-3-yl}methyl)amino]-5-(trifluoromethyl)pyrimidin-2-yl}amino)benzamide], 10.8 nM.
For `CS(=O)(=O)c1cccc(CNc2nc(Nc3ccc(S(C)(=O)=O)nc3)ncc2C(F)(F)F)c1` [Compound 24, N-4-[3-(methylsulfonyl)benzyl]-N-2-[6-(rnethylsulfonyl)pyridin-3-yl]-5-(trifluoromethyl)-pyrimidine-2,4-diamine] the value was 337 nM; for `CN(C)CCCNC(=O)c1ccc(Nc2ncc(C(F)(F)F)c(NCc3cccnc3N(C)S(C)(=O)=O)n2)cc1` [Compound 233, N-[3-(dimethylamino)propyl]-4-({4-[({2-[methyl(methylsulfonyl)amino]pyridin-3-yl}methyl)amino]-5-(trifluoromethyl)pyrimidin-2-yl}amino)benzamide], 1.33 nM.
The compound `CC(O)c1ccc(Nc2ncc(C(F)(F)F)c(NCc3cccc(N(C)S(C)(=O)=O)c3)n2)cc1` (centres unmarked) [Compound 328, N-[3-({[2-{[4-(1-hydroxyethyl)phenyl]amino}-5-(trifluoromethyl)pyrimidin-4-yl]amino}methyl)phenyl]-N-methylmethanesulfonamide] displayed an IC50 of 0.619 nM.
For `CN(c1ncccc1CNc1nc(Nc2ccnc(N)n2)ncc1C(F)(F)F)S(C)(=O)=O` [Compound 299, N-{3-[({2-[(2-aminopyrimidin-4-yl)amino]-5-(trifluoromethyl)pyrimidin-4-yl}amino)methyl]pyridin-2-yl}-N-methylmethane-sulfonamide] the value was over 188 nM; for `CN(c1ncccc1CNc1nc(Nc2ccc(C(=O)N3CC[C@H](F)C3)cc2)ncc1C(F)(F)F)S(C)(=O)=O` (stereo in doubt) [Compound 235, N-[3-({[2-({4-[(3-fluoropyrrolidin-1-yl)carbonyl]phenyl}amino)-5-(trifluoromethyl)pyrimidin-4-yl]amino}methyl)pyridin-2-yl]-N-methylmethane-sulfonamide], 0.6 nM; for `Cc1cc(Nc2ncc(C(F)(F)F)c(NCc3ncccc3N(C)S(C)(=O)=O)n2)ccc1C(N)=O` [Compound 336, 2-methyl-4-({4-[({3-[methyl(methylsulfonyl)amino]pyridin-2-yl}methyl)amino]-5-(trifluoromethyl)pyrimidin-2-yl)amino)benzamide], under 0.595 nM.
For `CN(c1ncccc1CNc1nc(Nc2ccc(C#N)c(O)c2)ncc1C(F)(F)F)S(C)(=O)=O` [Compound 390, N-{3-[({2-[(4-cyano-3-hydroxyphenyl)amino]-5-(trifluoromethyl)pyrimidin-4-yl}amino)methyl]pyridin-2-yl}-N-methylmethane-sulfonamide] the value was 0.746 nM.
For `CN(c1cccnc1CNc1nc(Nc2ccc(C(N)=O)c(Cl)c2)ncc1C(F)(F)F)S(C)(=O)=O` [Compound 359, 2-chloro-4-({4-[({3-[methyl(methylsulfonyl)amino]pyridin-2-yl}methyl)amino]-5-(trifluoromethyl)pyrimidin-2-yl}amino)benzamide], the IC50 is under 0.595 nM.
For `Cc1ccc(N(C)S(C)(=O)=O)cc1CNc1nc(Nc2ccccc2)ncc1C(F)(F)F` [Compound 63, N-[3-({[2-anilino-5-(trifluoromethyl)pyrimidin-4-yl]amino}methyl)-4-methylphenyl]-N-methylmethanesulfonamide] the value was 0.6 nM; for `CNC(=O)c1ccc(Nc2ncc(C(F)(F)F)c(NCc3nccnc3N(C)S(C)(=O)=O)n2)c(C)c1` [Compound 401, N,3-dimethyl-4-({4-[({3-[methyl(methylsulfonyl)amino]pyrazin-2-yl}methyl)amino]-5-(trifluoromethyl)pyrimidin-2-yl}amino)benzamide], 1.17 nM.
Compound `Cc1ncc(CNc2nc(Nc3ccc(C(N)=O)cc3)ncc2C(F)(F)F)c(N(C)S(C)(=O)=O)n1` [Compound 84, 4-({4-[({2-methyl-4-[methyl(methylsulfonyl)amino]pyrimidin-5-yl}methyl)amino]-5-(trifluoromethyl)pyrimidin-2-yl}amino)benzamide] gave an IC50 of 1.71 nM.
Consider `CN(c1ncccc1CNc1nc(Nc2ccc(C(=O)NCC(C)(C)CO)cc2)ncc1C(F)(F)F)S(C)(=O)=O` [Compound 256, N-(3-hydroxy-2,2-dimethylpropyl)-4-({4-[({2-[methyl(methylsulfonyl)amino]pyridin-3-yl}methyl)amino]-5-(trifluoromethyl)pyrimidin-2-yl}amino)benzamide], for which the midpoint of inhibition, the IC50, lay at 1.57 nM.
Turning to `C[C@@H](N)c1ccc(Nc2ncc(C(F)(F)F)c(NCc3ncccc3N(C)S(C)(=O)=O)n2)cc1` [Compound 352, N-[2-({[2-({4-[(1R)-1-aminoethyl]phenyl}amino)-5-(trifluoromethyl)pyrimidin-4-yl]amino}methyl)pyridin-3-yl]-N-methylmethane-sulfonamide], the IC50 was under 0.595 nM.
Next, `CNC(=O)c1ccc(Nc2ncc(C(F)(F)F)c(NCc3nccnc3N(C)S(C)(=O)=O)n2)cc1C` [Compound 400, N,2-dimethyl-4-({4-[({3-[methyl(methylsulfonyl)amino]pyrazin-2-yl)methyl)amino]-5-(trifluoromethyl)pyrimidin-2-yl}amino)benzamide]: 0.66 nM.
